pIC50: −log10 of the molar value.
Molecular target: PIK3CG (human) (UniProt P48736)
Experiment: Assessment of PIK3CG Kinase Activity

PIK3CG (human), sequence (P48736 whole entry, looked up): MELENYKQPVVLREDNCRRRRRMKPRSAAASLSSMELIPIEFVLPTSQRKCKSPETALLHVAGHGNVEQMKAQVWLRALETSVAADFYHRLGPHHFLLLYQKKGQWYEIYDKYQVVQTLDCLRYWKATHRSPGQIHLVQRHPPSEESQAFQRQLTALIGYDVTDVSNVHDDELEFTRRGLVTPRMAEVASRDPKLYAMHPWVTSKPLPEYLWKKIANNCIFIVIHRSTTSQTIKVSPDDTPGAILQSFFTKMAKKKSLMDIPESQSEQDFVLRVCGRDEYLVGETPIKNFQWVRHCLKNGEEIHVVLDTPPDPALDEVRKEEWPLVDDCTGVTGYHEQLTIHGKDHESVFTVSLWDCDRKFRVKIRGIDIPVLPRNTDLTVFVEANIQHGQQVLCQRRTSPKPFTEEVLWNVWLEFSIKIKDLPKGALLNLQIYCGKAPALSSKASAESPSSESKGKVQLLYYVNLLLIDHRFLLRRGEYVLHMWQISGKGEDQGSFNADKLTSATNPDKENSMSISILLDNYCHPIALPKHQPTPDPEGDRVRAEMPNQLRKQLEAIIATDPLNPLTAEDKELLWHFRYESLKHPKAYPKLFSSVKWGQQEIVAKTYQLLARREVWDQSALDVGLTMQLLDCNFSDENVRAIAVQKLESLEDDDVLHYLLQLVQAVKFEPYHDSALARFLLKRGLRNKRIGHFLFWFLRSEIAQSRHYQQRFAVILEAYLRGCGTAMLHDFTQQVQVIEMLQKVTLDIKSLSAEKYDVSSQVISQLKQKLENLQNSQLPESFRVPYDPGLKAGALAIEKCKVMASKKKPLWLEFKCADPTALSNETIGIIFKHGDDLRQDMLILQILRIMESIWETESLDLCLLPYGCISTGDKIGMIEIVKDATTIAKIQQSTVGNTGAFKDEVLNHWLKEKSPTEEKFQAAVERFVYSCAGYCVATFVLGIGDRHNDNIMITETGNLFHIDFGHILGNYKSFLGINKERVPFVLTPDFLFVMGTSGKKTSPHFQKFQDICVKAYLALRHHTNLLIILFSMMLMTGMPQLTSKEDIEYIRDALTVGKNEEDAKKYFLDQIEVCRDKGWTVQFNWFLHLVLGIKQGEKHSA

Compound	pIC50
CC(C)N1CC(=O)N(C)c2cnc(Nc3cc(NC(=O)[C@@H](C)c4ccccc4)cc(S(C)(=O)=O)c3)nc21	> 6.10
CC(C)N1CC(=O)N(C)c2cnc(Nc3cc(NC(=O)Cc4cccc(Cl)c4)cc(S(C)(=O)=O)c3)nc21	> 6.10
CC(C)N1CC(=O)N(C)c2cnc(Nc3cccc(S(=O)(=O)CCO)c3)nc21	> 6.10
CC(C)N1CC(=O)N(C)c2cnc(Nc3cc(NC(=O)O[C@@H]4CCN(C5CCCC5)C4)cc(S(C)(=O)=O)c3)nc21	> 6.10
CC(C)N1CC(=O)N(C)c2cnc(Nc3cc(-c4cc(C5CC5)[nH]n4)cc(S(C)(=O)=O)c3)nc21	> 6.10
Cc1oncc1C(=O)Nc1cc(Nc2ncc3c(n2)N(C(C)C)CC(=O)N3C)cc(S(C)(=O)=O)c1	> 6.10
CCN1CCCC1CNC(=O)c1cc(Nc2ncc3c(n2)N(C(C)C)CC(=O)N3C)cc(NS(C)(=O)=O)c1 (centres undefined)	> 6.10
CC(C)N1CC(=O)N(C)c2cnc(Nc3cc(C(=O)NCc4ccncc4)cc(S(C)(=O)=O)c3)nc21	> 6.10
CC(C)N1CC(=O)N(C)c2cnc(Nc3cc(C(=O)NC4CCN(C)CC4)cc(S(C)(=O)=O)c3)nc21	> 6.10
CC(C)N1CC(=O)N(C)c2cnc(Nc3cc(NS(C)(=O)=O)cc(C(=O)NCCc4ccccn4)c3)nc21	> 6.10
CC(C)N1CC(=O)N(C)c2cnc(Nc3cc(NC(=O)C[C@@H]4CCN(C5CCCC5)C4)cc(S(C)(=O)=O)c3)nc21	> 6.10
CC(C)N1CC(=O)N(C)c2cnc(Nc3cc(N(C)C(=O)N[C@H]4CCN(C5CCCC5)C4)cc(S(C)(=O)=O)c3)nc21	> 6.10
CC(C)N1CC(=O)N(C)c2cnc(Nc3cc(NC(=O)N4CCOCC4)cc(S(C)(=O)=O)c3)nc21	> 6.10
CC(C)N1CC(=O)N(C)c2cnc(Nc3cc(NC(=O)N(C)Cc4ccncc4)cc(S(C)(=O)=O)c3)nc21	> 6.10
CC(C)N1CC(=O)N(C)c2cnc(Nc3cc(NC(=O)N[C@@H]4CCN(C5CCCC5)C4)cc(S(N)(=O)=O)c3)nc21	> 6.10
CC(C)N1CC(=O)N(C)c2cnc(Nc3cc(CS(C)(=O)=O)cc(C(F)(F)F)c3)nc21	> 6.10
CC(C)N1CC(=O)N(C)c2cnc(Nc3cc(NC4CCC(N)CC4)cc(S(C)(=O)=O)c3)nc21 (centres undefined)	> 6.10
CC(C)N1CC(=O)N(C)c2cnc(Nc3cc(NC(=O)C(C)(C)c4ccccc4)cc(S(C)(=O)=O)c3)nc21	> 6.10
CC(C)N1CC(=O)N(C)c2cnc(Nc3cc(C(=O)NCCc4ccncc4)cc(S(C)(=O)=O)c3)nc21	> 6.10
Cc1cc(CC(=O)Nc2cc(Nc3ncc4c(n3)N(C(C)C)CC(=O)N4C)cc(S(C)(=O)=O)c2)on1	> 6.10

Compound	pIC50
CC(C)N1CC(=O)N(C)c2cnc(Nc3cc(N4CCNC4=O)cc(S(C)(=O)=O)c3)nc21	> 6.10
CNS(=O)(=O)c1cccc(Nc2ncc3c(n2)N(C(C)C)CC(=O)N3C)c1	> 6.10
CC(C)N1CC(=O)N(C)c2cnc(Nc3cc(NC(=O)NCCc4cccnc4)cc(S(C)(=O)=O)c3)nc21	> 6.10
CC[C@@H]1CN(c2cccc(Nc3ncc4c(n3)N(C(C)C)CC(=O)N4C)c2)C(=O)CN1C	> 6.10
CN=[S@@](C)(=O)c1cccc(Nc2ncc3c(n2)N(C(C)C)CC(=O)N3C)c1	> 6.10
CC(C)N1CC(=O)N(C)c2cnc(Nc3cc(Br)cc(S(C)(=O)=O)c3)nc21	> 6.10
Cc1cc(CNC(=O)Nc2cc(Nc3ncc4c(n3)N(C(C)C)CC(=O)N4C)cc(S(C)(=O)=O)c2)n[nH]1	> 6.10
CC(C)N1CC(=O)N(C)c2cnc(Nc3cc(NC(=O)C[C@@H]4CCNC4)cc(S(C)(=O)=O)c3)nc21	> 6.10
CC(C)N1CC(=O)N(C)c2cnc(Nc3cc(NC(=O)[C@@H]4CCCN(C5CCCC5)C4)cc(S(C)(=O)=O)c3)nc21	> 6.10
CC(C)N1CC(=O)N(C)c2cnc(Nc3cc(NC(=O)N[C@H]4CCN(C5CCCC5)C4)cc(S(C)(=O)=O)c3)nc21	> 6.10
CC(C)NCCS(=O)(=O)c1cccc(Nc2ncc3c(n2)N(C(C)C)CC(=O)N3C)c1	> 6.10
CC(C)N1CC(=O)N(C)c2cnc(Nc3cc(NC(=O)NC4CCN(C)CC4)cc(S(C)(=O)=O)c3)nc21	> 6.10
CNC(=O)c1cc(Nc2ncc3c(n2)N(C(C)C)CC(=O)N3C)cc(C(F)(F)F)c1	> 6.10
CC(C)N1CC(=O)N(C)c2cnc(Nc3cc(NC(=O)[C@H]4CCCN(C5CCCC5)C4)cc(S(C)(=O)=O)c3)nc21	> 6.10
CC(C)N1CC(=O)N(C)c2cnc(Nc3cc(NC(=O)[C@H](C)c4ccccc4)cc(S(C)(=O)=O)c3)nc21	> 6.10
CC(C)N1CC(=O)N(C)c2cnc(Nc3cc(NC(=O)N[C@H]4CCN(C5CCCC5)C4)cc(S(N)(=O)=O)c3)nc21	> 6.10
CC(C)N1CC(=O)N(C)c2cnc(Nc3cc(C(=O)NCCN4CCNC4=O)cc(C(F)(F)F)c3)nc21	> 6.10
CC(C)N1CC(=O)N(C)c2cnc(Nc3cc(NC(=O)CC4CCCC4)cc(S(C)(=O)=O)c3)nc21	> 6.10
CC(C)N1CC(=O)N(C)c2cnc(Nc3cc(S(C)(=O)=O)cc(S(C)(=O)=O)c3)nc21	> 6.10

Source: the Kinase Knowledgebase extract (Sharma et al. 2016)
